Earlier results as cited in patent US6482908B1, “Template-directed ring-closing metathesis and ring-opening metathesis polymerization of functionalized dienes” (California Institute of Technology, priority 1997, dated 2002).

Test system: cell attachment and spreading

Gly-Arg-Gly-Asp-Tyr (GRGDY; printed: Gly-Arg-Gly-Asp-Tyr) [oligopeptide immobilized onto glass substrate, literature adhesion agent]
cell adhesion activity of immobilized peptide (immobilized onto a poorly adhesive glass substrate): extremely potent adhesion agent
minimum surface density necessary to induce normal cell attachment and spreading (peptide immobilized onto poorly adhesive glass substrate, ~140 nm between peptides): 10 fmol/cm^2
